Reference: ChEMBL document CHEMBL3352267, “The design and implementation of a generic lipopeptide scanning platform to enable the identification of 'locally acting' agonists for the apelin receptor” (Bioorg Med Chem Lett, 2014)
Residues, ends and D or L forms follow the SMILES beside them. *: point of attachment. Palmitoyl = CCCCCCCCCCCCCCCC(=O)*

What follows are compounds tested against T1, Apelin receptor (Homo sapiens, UniProt P35414) (assay: Agonist activity at APJ receptor in HEK293 cells assessed as inhibition of forskolin-induced cAMP level incubated for 5 mins prior to forskolin challenge measured after 30 mins by TR-FRET assay).
T1 sequence (P35414 whole entry): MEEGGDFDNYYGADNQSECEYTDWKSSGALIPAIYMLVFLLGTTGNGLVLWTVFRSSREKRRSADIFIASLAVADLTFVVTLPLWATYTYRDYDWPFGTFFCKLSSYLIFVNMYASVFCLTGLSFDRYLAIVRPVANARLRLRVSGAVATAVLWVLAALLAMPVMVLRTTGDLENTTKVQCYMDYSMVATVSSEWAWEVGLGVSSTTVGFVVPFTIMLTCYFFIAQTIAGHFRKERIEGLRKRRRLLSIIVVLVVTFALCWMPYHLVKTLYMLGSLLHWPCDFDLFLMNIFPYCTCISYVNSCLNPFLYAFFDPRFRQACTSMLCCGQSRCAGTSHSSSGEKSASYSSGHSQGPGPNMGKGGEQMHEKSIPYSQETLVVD
Assay type: functional, cell-based

EC50, 0.0413 µM:
CCCCCCCCCCCCCCCC(=O)N[C@H](C(=O)N[C@@H](C)C(=O)N[C@@H](CC(C)C)C(=O)N1CCC[C@H]1C(=O)N[C@@H](CC(C)C)C(=O)N[C@@H](Cc1c[nH]c2ccccc12)C(=O)N[C@@H](C)C(=O)N[C@H](C(=O)N[C@@H](Cc1ccc(O)cc1)C(=O)N[C@H](C(=O)N[C@@H](Cc1ccc(O)cc1)C(=O)N[C@@H](CCCNC(=N)N)C(N)=O)[C@@H](C)O)[C@@H](C)O)C(C)C (Palmitoyl-VALPLWATYTYR-NH2)

EC50, > 30 µM:
CCCCCCCCCCCCCCCC(=O)N1CCC[C@H]1C(=O)N[C@@H](CC(C)C)C(=O)N[C@@H](Cc1c[nH]c2ccccc12)C(=O)N[C@@H](C)C(=O)N[C@H](C(=O)N[C@@H](Cc1ccc(O)cc1)C(=O)N[C@H](C(=O)N[C@@H](Cc1ccc(O)cc1)C(=O)N[C@@H](CCCNC(=N)N)C(N)=O)[C@@H](C)O)[C@@H](C)O (Palmitoyl-PLWATYTYR-NH2), CCCCCCCCCCCCCCCC(=O)N[C@H](C(=O)N[C@H](C(=O)N[C@@H](C)C(=O)N1CCC[C@H]1C(=O)N[C@@H](CC(C)C)C(=O)N[C@@H](Cc1c[nH]c2ccccc12)C(=O)N[C@@H](C)C(=O)N[C@H](C(=O)N[C@@H](Cc1ccc(O)cc1)C(=O)N[C@H](C(=O)N[C@@H](Cc1ccc(O)cc1)C(=O)N[C@@H](CCCNC(=N)N)C(N)=O)[C@@H](C)O)[C@@H](C)O)[C@@H](C)O)C(C)C (Palmitoyl-VTAPLWATYTYR-NH2), CCCCCCCCCCCCCCCC(=O)N[C@H](C(=O)N[C@H](C(=O)N[C@@H](CC(C)C)C(=O)N[C@@H](C)C(=O)N[C@@H](CC(C)C)C(=O)N[C@@H](Cc1c[nH]c2ccccc12)C(=O)N[C@@H](C)C(=O)N[C@H](C(=O)N[C@@H](Cc1ccc(O)cc1)C(=O)N[C@H](C(=O)N[C@@H](Cc1ccc(O)cc1)C(=O)N[C@@H](CCCNC(=N)N)C(N)=O)[C@@H](C)O)[C@@H](C)O)[C@@H](C)O)C(C)C (Palmitoyl-VTLALWATYTYR-NH2), CCCCCCCCCCCCCCCC(=O)N[C@H](C(=O)N[C@H](C(=O)N[C@@H](CC(C)C)C(=O)N1CCC[C@H]1C(=O)N[C@@H](C)C(=O)N[C@@H](Cc1c[nH]c2ccccc12)C(=O)N[C@@H](C)C(=O)N[C@H](C(=O)N[C@@H](Cc1ccc(O)cc1)C(=O)N[C@H](C(=O)N[C@@H](Cc1ccc(O)cc1)C(=O)N[C@@H](CCCNC(=N)N)C(N)=O)[C@@H](C)O)[C@@H](C)O)[C@@H](C)O)C(C)C (Palmitoyl-VTLPAWATYTYR-NH2), CCCCCCCCCCCCCCCC(=O)N[C@H](C(=O)N[C@H](C(=O)N[C@@H](CC(C)C)C(=O)N1CCC[C@H]1C(=O)N[C@@H](CC(C)C)C(=O)N[C@@H](C)C(=O)N[C@@H](C)C(=O)N[C@H](C(=O)N[C@@H](Cc1ccc(O)cc1)C(=O)N[C@H](C(=O)N[C@@H](Cc1ccc(O)cc1)C(=O)N[C@@H](CCCNC(=N)N)C(N)=O)[C@@H](C)O)[C@@H](C)O)[C@@H](C)O)C(C)C (Palmitoyl-VTLPLAATYTYR-NH2), CCCCCCCCCCCCCCCC(=O)N[C@H](C(=O)N[C@H](C(=O)N[C@@H](CC(C)C)C(=O)N1CCC[C@H]1C(=O)N[C@@H](CC(C)C)C(=O)N[C@@H](Cc1c[nH]c2ccccc12)C(=O)N[C@@H](C)C(=O)N[C@H](C(N)=O)[C@@H](C)O)[C@@H](C)O)C(C)C (Palmitoyl-VTLPLWAT-NH2), CCCCCCCCCCCCCCCC(=O)N[C@H](C(=O)N[C@H](C(=O)N[C@@H](CC(C)C)C(=O)N1CCC[C@H]1C(=O)N[C@@H](CC(C)C)C(=O)N[C@@H](Cc1c[nH]c2ccccc12)C(=O)N[C@@H](C)C(=O)N[C@H](C(=O)N[C@@H](Cc1ccc(O)cc1)C(=O)N[C@@H](C)C(=O)N[C@@H](Cc1ccc(O)cc1)C(=O)N[C@@H](CCCNC(=N)N)C(N)=O)[C@@H](C)O)[C@@H](C)O)C(C)C (Palmitoyl-VTLPLWATYAYR-NH2)

These compounds were tested against T2, Apelin receptor (Homo sapiens) (UniProt P35414) (assay: Agonist activity at APJ receptor in HEK293 cells assessed as inhibition of forskolin-induced cAMP level incubated for 5 mins prior to forskolin challenge measured after 30 mins by TR-FRET assay relative to [pyr1]-apelin-13).
T2 sequence (whole entry): T1 sequence (P35414 whole entry)
Assay type: functional, cell-based

%max, 45%:
CCCCCCCCCCCCCCCC(=O)N[C@H](C(=O)N[C@@H](C)C(=O)N[C@@H](CC(C)C)C(=O)N1CCC[C@H]1C(=O)N[C@@H](CC(C)C)C(=O)N[C@@H](Cc1c[nH]c2ccccc12)C(=O)N[C@@H](C)C(=O)N[C@H](C(=O)N[C@@H](Cc1ccc(O)cc1)C(=O)N[C@H](C(=O)N[C@@H](Cc1ccc(O)cc1)C(=O)N[C@@H](CCCNC(=N)N)C(N)=O)[C@@H](C)O)[C@@H](C)O)C(C)C (Palmitoyl-VALPLWATYTYR-NH2)
